Measurements from patent publication US4087561A, “Control of nitrosamine formation in nitride cured meat with 1,2,3,4-tetrahydro-quinoline compounds” (Canada Packers Limited, priority 1975, dated 1978).

Columns and labels:
[1] = Volatile nitrosamine content of cook-out fat from fried nitrite-cured bacon slices streaked with test compound in soya oil; details: for nitrosamine content of the fried meat: inferred from cook-out fat content; for nitrosamine content of cook-out fat from the test sample: 100 ppm on bacon slices, control sample 15 ppb
Procedure: A portion of the foregoing product was dissolved in winterized soya oil to provide a 4.5% concentration and the resulting solution was streaked on bacon slices, which had undergone a conventional nitrite cure and plant processing, in quantities providing levels of 1,2,3,4-tetrahydro-2,2,4-trimethyl-6-ethoxyquinoline of from 5 ppm to 100 ppm in the meat. Control slices of bacon were streaked with the oil alone. The bacon slices were fried under standardized conditions and the cook-out fat was analyzed for volatile nitrosamine content.
Since the analytical means available are not accurate below about 3 ppb (parts per billion), it will be seen that at levels of about 20 parts per million and greater of the test compound in the meat the amount of nitrosamines in the cook-out fat was reduced below the accurately determinable level.
A portion of the 1,2,3,4-tetrahydro-2,4-diethyl-2-methyl-6-methoxyquinolineprepared as above was dissolved in winterized soya oil (4.5% concentration) and the resulting solution was streaked on nitrite cured, plant processed bacon slices at a level of 100 ppm in the meat. Control slices of bacon received oil alone. The bacon slices were fried and the cook-out fat was analyzed for volatile nitrosamine content as in Example 1.

[2] = Stability of the compound; assay type: physicochemical
[3] = Control of nitrosamine formation in nitrite cured meat (general statements)
[4] = Volatile nitrosamines in cook-out fat of fried bacon cured with pumping pickle containing test compound; details: 150 mg = 50 ppm, in Tween 60, control sample 21 ppb
Text: This example is representative of the use of compounds of the general formula given above in a pumping pickle.
A single pork belly (13.2 lb) was cut along the short dimension into two equal portions. Production pickle (300g), of a composition which has been generally described above, was pumped into one portion to be used as control. The other half was pumped with the same production pickle (300g) to which 1,2,3,4-tetrahydro-2,2,4-trimethyl-6-ethoxyquinoline, prepared as described in Example 1, (150 mg .ident. 50 ppm) in Tween 60 (500 mg) had been dispersed. Both portions were subsequently smoked, chilled, sliced, and packaged normally. The samples were then analyzed for nitrite content. The amount of nitrite found just before frying was 75 ppm in the control sample and 73 ppm in the test sample.
Each sample of the bacon was then fried under standard frying conditions and the cook-out fat analyzed for volatile nitrosamines.

[5] = cited from earlier work

SMILES: CCOc1ccc2c(c1)C(C)CC(C)(C)N2 (stereo not shown) [1,2,3,4-tetrahydro-2,2,4-trimethyl-6-ethoxyquinoline]
- Nitrosamines in cook-out fat, test product ([1]; Table I sample 1, 100 ppm in meat, control product 29 ppb): 0 ppb
- Nitrosamines in cook-out fat, test product ([1]; Table I sample 2, 80 ppm in meat, control product 19 ppb): 2 ppb
- Nitrosamines in cook-out fat, test product ([1]; Table I sample 3, 40 ppm in meat, control product 19 ppb): 3 ppb
- Nitrosamines in cook-out fat, test product ([1]; Table I sample 4, 20 ppm in meat, control product 19 ppb): 1 ppb
- Nitrosamines in cook-out fat, test product ([1]; Table I sample 5, 10 ppm in meat, control product 19 ppb): 0 ppb
- Nitrosamines in cook-out fat, test product ([1]; Table I sample 6, 10 ppm in meat, control product 18 ppb): 2 ppb
- Nitrosamines in cook-out fat, test product ([1]; Table I sample 7, 5 ppm in meat, control product 19 ppb): 5 ppb
- Nitrosamines in cook-out fat, test product ([1]; Table I sample 8, 20 ppm in meat, control product 31 ppb): 0 ppb
- Nitrosamines in cook-out fat, test product ([1]; Table I sample 9, 10 ppm in meat, control product 31 ppb): 10 ppb
- Nitrosamines in cook-out fat, test product ([1]; Table I sample 10, 5 ppm in meat, control product 31 ppb): 22 ppb
- Nitrosamines in cook-out fat, test product ([1]; Table I sample 11, 20 ppm in meat, control product 36 ppb): 5 ppb
- Nitrosamines in cook-out fat, test product ([1]; Table I sample 12, 10 ppm in meat, control product 36 ppb): 8 ppb
- Nitrosamines in cook-out fat, test product ([1]; Table I sample 13, 5 ppm in meat, control product 36 ppb): 6 ppb
- Nitrosamines in cook-out fat, test product ([1]; Table I sample 14, 100 ppm in meat, control product 49 ppb): 1 ppb
- Nitrosamines in cook-out fat, test product ([1]; Table I sample 15, 20 ppm in meat, control product 39 ppb): 3 ppb
- Nitrosamines in cook-out fat, test product ([1]; Table I sample 16, 10 ppm in meat, control product 39 ppb): 15 ppb
- Nitrosamines in cook-out fat, test product ([1]; Table I sample 17, 20 ppm in meat, control product 25 ppb): 2 ppb
- Nitrosamines in cook-out fat, test product ([1]; Table I sample 18, 10 ppm in meat, control product 25 ppb): 4 ppb
- nitrosamine content of the fried meat [1]: virtually eliminated
- reduction in the amount of nitrosamines formed ([1]; lesser amounts (below about 20 ppm in meat)): significant reduction in the amount of nitrosamines formed, in some instances reducing the nitrosamines below the accurately detectable level
- amount of nitrosamines in the cook-out fat ([1]; levels of about 20 ppm and greater in meat, reduced below the accurately determinable level (about 3 ppb)): below 3 ppb
- stability at room temperature ([2]; crystalline solid, room temperature): quite stable at room temperature
- effectiveness in the control of nitrosamines in nitrite cured meats, compared with ethoxyquin [3]: equally effective
- volatile nitrosamines in cook-out fat of test sample [4]: did not show any detectable nitrosamine

SMILES: CCOc1ccc2c(c1)C(CC)CC(C)(CC)N2 (stereo not shown) [1,2,3,4-tetrahydro-2,4-diethyl-2-methyl-6-ethoxyquinoline]
- nitrosamine content of cook-out fat from the test sample [1]: zero

SMILES: CCC1CC(C)(CC)Nc2ccc(OC)cc21 (stereo not shown) [1,2,3,4-tetrahydro-2,4-diethyl-2-methyl-6-methoxyquinoline]
- Nitrosamines in cook-out fat, test product ([1]; Table II sample 1, 100 ppm in meat, control product 51 ppb): 2 ppb
- Nitrosamines in cook-out fat, test product ([1]; Table II sample 2, 100 ppm in meat, control product 15 ppb): 0 ppb
- nitrosamine content of the cook-out fat ([1]; each test sample of Table II, 100 ppm in meat, reduced below the accurately detectable level): < 3 ppb
- nitrosamine content of the fried meat [1]: virtually free of such substances

SMILES: CCOc1ccc2c(c1)C(C)CC(C)(CC(C)C)N2 (stereo not shown) [1,2,3,4-tetrahydro-2,4-dimethyl-2-isobutyl-6-ethoxyquinoline]
- nitrosamine content of cook-out fat from the test sample [1]: 0.6 ppb

SMILES: COc1ccc2c(c1)CCCN2 [1,2,3,4-tetrahydro-6-methoxyquinoline]
- nitrosamine content of cook-out fat from the test sample [1]: 0.6 ppb

SMILES: O=NN1CCCC1 [N-nitrosopyrrolidine]
- carcinogenicity in tests on experimental animals [5]: carcinogenic

SMILES: CN(C)N=O [dimethylnitrosamine]
- carcinogenicity in tests on experimental animals [5]: carcinogenic

SMILES: CCOc1ccc2c(c1)C(C)=CC(C)(C)N2 [ethoxyquin, 1,2-dihydro-2,2,4-trimethyl-6-ethoxyquinoline, reference compound]
- stability in the presence of air (darkening) ([2]; oily yellow liquid, presence of air): rather quickly turns dark in the presence of air
